Measured values as given in ChEMBL document CHEMBL1146052, “Inhibitors of epidermal growth factor receptor tyrosine kinase: Novel C-5 substituted anilinoquinazolines designed to target the ribose pocket” (Bioorg Med Chem Lett, 2006).

Columns and labels:
LoVo = assay: Inhibition of tumor volume in human LoVo cell xenografted in mice at 100 mg/kg, po; conditions: Mus musculus, read-out: Inhibition
[1] = biological target: Epidermal growth factor receptor (Homo sapiens, UniProt P00533); assay: Inhibitory activity against EGFR
Sequence of Epidermal growth factor receptor (P00533 whole entry): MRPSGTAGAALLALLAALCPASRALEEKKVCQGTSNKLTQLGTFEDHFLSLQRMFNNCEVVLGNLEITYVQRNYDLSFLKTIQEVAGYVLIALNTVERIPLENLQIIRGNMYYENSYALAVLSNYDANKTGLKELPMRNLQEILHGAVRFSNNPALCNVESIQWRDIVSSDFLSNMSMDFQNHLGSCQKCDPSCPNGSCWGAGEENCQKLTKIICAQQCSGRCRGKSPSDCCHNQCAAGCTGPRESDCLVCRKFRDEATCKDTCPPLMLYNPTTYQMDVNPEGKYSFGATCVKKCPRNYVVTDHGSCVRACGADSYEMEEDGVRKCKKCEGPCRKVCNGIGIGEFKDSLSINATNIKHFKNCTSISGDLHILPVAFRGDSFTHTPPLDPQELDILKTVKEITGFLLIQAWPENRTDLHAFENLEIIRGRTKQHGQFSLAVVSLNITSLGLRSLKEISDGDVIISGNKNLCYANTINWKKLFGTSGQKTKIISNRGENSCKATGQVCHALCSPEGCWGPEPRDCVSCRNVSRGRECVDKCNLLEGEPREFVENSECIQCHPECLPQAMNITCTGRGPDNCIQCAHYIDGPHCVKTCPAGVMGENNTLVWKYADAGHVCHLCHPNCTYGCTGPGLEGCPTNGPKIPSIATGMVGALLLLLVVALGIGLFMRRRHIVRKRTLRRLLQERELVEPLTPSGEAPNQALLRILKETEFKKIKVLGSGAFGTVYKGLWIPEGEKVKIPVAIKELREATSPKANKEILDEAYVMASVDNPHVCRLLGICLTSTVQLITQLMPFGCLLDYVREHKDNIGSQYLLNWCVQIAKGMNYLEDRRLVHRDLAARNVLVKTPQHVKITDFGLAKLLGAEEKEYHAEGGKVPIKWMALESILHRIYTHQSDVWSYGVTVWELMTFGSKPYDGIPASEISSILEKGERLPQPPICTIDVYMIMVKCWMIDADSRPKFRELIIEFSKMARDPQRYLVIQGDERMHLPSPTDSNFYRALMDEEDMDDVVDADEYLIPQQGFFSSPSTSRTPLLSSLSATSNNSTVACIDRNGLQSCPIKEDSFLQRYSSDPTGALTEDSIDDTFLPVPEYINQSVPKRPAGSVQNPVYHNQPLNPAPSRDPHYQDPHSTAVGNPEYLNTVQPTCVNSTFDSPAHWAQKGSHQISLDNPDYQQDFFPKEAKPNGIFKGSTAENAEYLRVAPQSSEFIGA

[2] = Percent of unbound ligand in mouse plasma at 5 mg/kg, po and 2 mg/kg, iv; format: ADME, organism-based
[3] = Plasma clearance in mouse at 5 mg/kg, po and 2 mg/kg, iv; format: ADME, organism-based
[4] = Volume of distribution in mouse at 5 mg/kg, po and 2 mg/kg, iv; format: ADME, organism-based; conditions: in vivo, read-out: Vdss
[5] = Half life in mouse at 5 mg/kg, po and 2 mg/kg, iv; format: ADME, organism-based; conditions: in vivo
[6] = Bioavailability in mouse at 5 mg/kg, po and 2 mg/kg, iv; format: ADME, organism-based; conditions: in vivo
[7] = Percent of unbound ligand in rat plasma at 5 mg/kg, po and 2 mg/kg, iv; format: ADME, organism-based
[8] = Volume of distribution in rat at 5 mg/kg, po and 2 mg/kg, iv; format: ADME, organism-based; conditions: in vivo, read-out: Vdss
[9] = Plasma clearance in rat at 5 mg/kg, po and 2 mg/kg, iv; format: ADME, organism-based
[10] = Half life in rat at 5 mg/kg, po and 2 mg/kg, iv; format: ADME, organism-based; conditions: in vivo
[11] = Bioavailability in rat at 5 mg/kg, po and 2 mg/kg, iv; format: ADME, organism-based; conditions: in vivo

| SMILES | IC50 [1] [nM] | further results |
| --- | --- | --- |
| COc1cc(OC2CCN(C)CC2)c2c(Nc3ccc(F)c(Cl)c3)ncnc2c1 | 21 | inhibition in vivo at 100 mg/kg (LoVo): 60%; fraction unbound [2]: 0.0311; clearance [3]: 20 mL/min/kg; Vd [4]: 8.2 L/kg; half-life [5]: 312 min; bioavailability [6]: 103%; fraction unbound [7]: 0.0251; Vd [8]: 12.3 L/kg; clearance [9]: 66 mL/min/kg; half-life [10]: 174 min; bioavailability [11]: 63% |
| CN1CCC(Oc2cccc3ncnc(Nc4ccc(F)c(Cl)c4)c23)CC1 | 3 | – |
| CCCN1CCC(Oc2cc(OC)cc3ncnc(Nc4ccc(F)c(Cl)c4)c23)CC1 | < 2 | – |
| COc1ccc2ncnc(Nc3ccc(F)c(Cl)c3)c2c1OC1CCN(C)CC1 | 225 | – |
| CCN1CCC(Oc2cc(OC)cc3ncnc(Nc4ccc(F)c(Cl)c4)c23)CC1 | < 2 | – |
| COc1cc(OC2CCN(C(C)=O)CC2)c2c(Nc3ccc(F)c(Cl)c3)ncnc2c1 | 873 | – |
| COc1cc(OC2CCNCC2)c2c(Nc3ccc(F)c(Cl)c3)ncnc2c1 | 10 | – |
| CN1CCN(CCCOc2cc(OC3CCOCC3)c3c(Nc4ccc(F)c(Cl)c4)ncnc3c2)CC1 | 66 | – |
| COc1cc(OC2CCOCC2)c2c(Nc3ccc(F)c(Cl)c3)ncnc2c1 | 1380 | – |
| COc1cc(OC(C)C)c2c(Nc3ccc(F)c(Cl)c3)ncnc2c1 | 8070 | – |
| COc1cc(OC2CCN(S(C)(=O)=O)CC2)c2c(Nc3ccc(F)c(Cl)c3)ncnc2c1 | 9600 | – |
| COCCOc1cc(OC2CCOCC2)c2c(Nc3ccc(F)c(Cl)c3)ncnc2c1 | 671 | – |
